Assay results published in US9439882B2, “Compounds and compositions for the treatment of cancer” (PROMETIC BIOSCIENCES, INC., priority 2010, dated 2016).

What was measured:
[1] = tested on: IL-12 production; experiment: IL-12 production in LPS-stimulated RAW264.7 cells (ELISA); type: cell-based; conditions: compound 0.5 mM; 100 ng/mL LPS, 21 h
Description: The effect of selected compounds on IL-12 production was undertaken in RAW264.7 (macrophage-like) cells. RAW264.7 cells were cultured with 100 ng/mL of LPS in presence or absence of compounds for 21 h in a humidified atmosphere of 95% air-5% carbon dioxide at 37° C. IL-12 concentration in the culture medium was measured using the IL-12 ELISA according to the manufacturer (BD Biosciences) recommendations. […] Compounds have no effect on IL-12 production in the absence of LPS.

[2] = tested on: HK-2 cells; experiment: TGF-β induced epithelial to mesenchymal transition in HK-2 cells (real-time PCR of E-cadherin, CTGF, collagen 1); type: cell-based, human; conditions: sodium decanoate and Compound I at 0.5 mM; for TGF-β induced EMT: HK-2 cells; for CTGF transcript expression / collagen 1 transcript expression: TGF-β-stimulated cells, 24 h, normalized to GAPDH; for basal expression of CTGF / basal expression of collagen 1: compound alone, no TGF-β
Description: FIG. 20 is a bar graph showing the effect of Compound XVII on E-cadherin in normal HK-2 cells and in TGF-β induced EMT cells. Real-time PCR using human E-cadherin TaqMan® Gene Expression Assay normalized to human GAPDH endogenous control; reference is […] cells 24 h (RQ=1). *means p<0.05, and ** means p<0.01 (t-test).
FIG. 21 is a bar graph showing the effect of Compound XVII on CTGF in normal HK-2 cells and in TGF-β induced EMT cells. Real-time PCR using human CTGH TaqMan® Gene Expression Assay normalized to human GAPDH endogenous control; reference is TGF-β-treated cells 24 h (RQ=1). *means p<0.05, and ** means p<0.01 (t-test).
FIG. 22 is a bar graph showing the effect of Compound XVII on collagen 1 in normal HK-2 cells and in TGF-β induced EMT cells. Real-time PCR using human Collagen 1 TaqMan® Gene Expression Assay normalized to human GAPDH endogenous control; reference is TGF-β-treated cells 24 h (RQ=1). ** means p<0.01 (t-test).
Real-time PCR using human CTGF TaqMan® Gene Expression Assay and Collagen 1 TaqMan® Gene Expression Assay normalized to human GAPDH endogenous control; reference is TGF-β-treated cells 24 h (RQ=1).
FIG. 24 is a bar graph showing the effect of Compound I on CTGF and collagen 1 expression in normal HK-2 cells and in TGF-β induced EMT cells. Real-time PCR using human CTGF TaqMan® Gene Expression Assay and Collagen 1α1 TaqMan® Gene Expression Assay normalized to human GAPDH endogenous control; reference is TGF-β-treated cells 24 h (RQ=1). Compound I is added at 0.5 mM.
Further analysis was undertaken to determine the effect of Compoounds on EMT. The effect of Compound XVII on TGF-β induced EMT was analyzed on human epithelial […] cells (HK-2). To assess the progression of EMT, the pro-epithelial marker E-cadherin and the mesenchymal/pro-fibrotic markers CTGF and collagen 1 were assayed by quantitative real-time PCR. To determine the efficacy of Compound XVII in inhibiting TGF-β-induced EMT, verification of the ability of TGF-β to induce EMT in HK-2 cells.

[3] = tested on: CTGF production; experiment: Inhibition of TGF-induced CTGF production in NHDF (ELISA); type: cell-based; conditions: Homo sapiens, 10 ng/mL TGF-β, 48 h
Description: (§1) The effect of selected compounds on CTGF production was undertaken in normal human dermal fibroblast (NHDF) or human mesangial cells. Cells were cultured in DMEM (0.5% FBS) with or without 10 ng/mL of TGF-β for 48 h in a humidified atmosphere of 95% air-5% carbon dioxide at 37° C. CTGF measurement in the culture medium was measured using the CTGF ELISA according to the manufacturer (Prepotech) recommendations.

[4] = tested on: CTGF production; experiment: Inhibition of TGF-induced CTGF production in human mesangial cells (ELISA); type: cell-based; conditions: FIG. 2
Description: as §1

[5] = tested on: P815 mastocytoma; experiment: Primary P815 mastocytoma tumor growth in mice; type: in vivo
From the text: The syngeneic tumor P815 is a DBA/2 (H-2^d)-derived mastocytoma obtained from ATCC (TIB64). […] Mice were sacrificed around day 23 (depending on the experiment). […] Tumors were palpable, in general, 3-5 days post-inoculation.

[6] = tested on: human prostate PC-3 tumor; experiment: Xenograft human prostate PC-3 tumor in mice; type: in vivo; conditions: cyclophosphamide alone; p≦0.05; FIG. 15
Description: The xenogenic human prostate tumor PC-3 was obtained from ATCC (CRL1435). PC-3 cells were grown in RPMI-1640 containing 10% fetal bovine serum. At day 0, 50 μL of viable PC-3 (1.5 to 2×10^6) cells were subcutaneously injected to produce localized tumors in 6- to 8-week old male CD1 nu/nu mice. The animals were then serially monitored by manual palpation for evidence of tumor. […] Mice were sacrificed at day 56. Serial tumor volume was obtained by bi-dimensional diameter measurements with calipers, using the formula 0.4 (a×b^2) where “a” was the major tumor diameter and “b” the minor perpendicular diameter.

[7] = tested on: Panc02 pancreatic cancer; experiment: Subcutaneous Panc02 pancreatic tumor growth; type: in vivo, mice; conditions: from day 34-39; oral; p<0.05; FIG. 16
[8] = tested on: B16F10 melanoma cells; experiment: Primary B16F10 melanoma tumor in mice; type: in vivo; conditions: C57BL/6 mice; sodium decanoate 100 mg/kg oral daily, doxorubicin 5 mg/kg (subtherapeutic dose); FIG. 3
Description: Female 6-8 week old C57BL/6 mice were injected subcutaneously on day 0 with 50 μL of 3.75×10^4 viable B16F10 melanoma cells from ATCC (source of cell culture, Dr. I. J. Fidler). On day 14, tumors reached […] and animals were randomized for treatment. […] Mice were sacrificed on day 12.

[9] = tested on: CT-26WT colon tumor; experiment: Primary colon CT-26WT tumor in mice; type: in vivo; conditions: sodium decanoate oral 200 mg/kg daily; 5-fluorouracil i.p. 40 mg/kg day 6, 13, 20; Compound XV oral; FIG. 12 and 13
Description: The syngeneic tumor CT-26WT (CT-26) is a colon tumor cell line obtained from ATCC (CRL-2638). CT-26 cells were grown in RPMI containing 10% fetal bovine serum. At day 0, 50 μL of 5×10^6 viable CT-26 cells were subcutaneously injected to produce localized tumors in 6- to 8-week old mice. The animals were then serially monitored by manual palpation for evidence of tumor. […] Mice were sacrificed at day 25. Serial tumor volume was obtained by bi-dimensional diameter measurements with calipers, using the formula 0.4 (a×b^2) where “a” was the major tumor diameter and “b” the minor perpendicular diameter. Tumors were palpable, in general, 3-5 days post-inoculation.

[10] = tested on: LL/2 lung tumor; experiment: LL/2 lung tumor in mice; type: in vivo; conditions: sodium decanoate oral 200 mg/kg daily; gemcitabine i.p. 50 mg/kg day 1, 8, 15, 22; FIG. 11
From the text: The syngeneic tumor LL/2 is a lung tumor cell line obtained from ATCC (CRL-1642). […] Mice were sacrificed at day 26. […] Tumors were palpable, in general, 3-5 days post-inoculation.

[11] = tested on: P815 liver metastasis; experiment: P815 liver metastasis in mice; type: in vivo; conditions: oral 200 mg/kg; p<0.05; FIG. 9 and 10
Description: The syngeneic tumor P815 is a DBA/2 (H-2^d)-derived mastocytoma obtained from ATCC (TIB64). P815 cells were grown in DMEM containing 10% fetal bovine serum. At day 0, 50 μL of 5×10^5 viable P815 cells were subcutaneously injected to produce localized tumors in 6- to 8-week old DBA/2 mice. The animals were then serially monitored by manual palpation for evidence of tumor. […] Mice were sacrificed around day 23 (depending on the experiment). Serial tumor volume was obtained by bi-dimensional diameter measurements with calipers, using the formula 0.4 (a×b^2) where “a” was the major tumor diameter and “b” the minor perpendicular diameter. Tumors were palpable, in general, 3-5 days post-inoculation.
It is known that P815 cells have the capacity to metastasize to the liver.

[12] = tested on: Panc02 pancreatic adenocarcinoma; experiment: Orthotopic Panc02 pancreatic cancer model, survival; type: in vivo; conditions: C57BL/6 mice; gemcitabine i.p. 50 mg/kg once a week, Compound XV oral 200 mg/kg daily; control 50 days; FIG. 4
Description: Syngeneic Panc02 is a pancreatic adenocarcinoma tumor cell line obtained from NCI (0507232). Panc02 cells are positive for Ki-Ras, p53, HerNEU and CDK. Panc02 were grown in RPMI-1640 containing 10% fetal bovine serum. At day 0, 50 μL of 5×10^5 viable Panc02 cells were injected into the tail of the pancreas in 6- to 8-week old C57BL/6 mice. Mice were then treated every day with oral administration of vehicle (saline, negative control), or Compound XV and with intraperitoneal injection of gemcitabine (50 mg/kg) once a week starting at day 8.

Row | Structure (SMILES) | IL-12 [1] [pg/mL] | TGF-β induced EMT [2] | CTGF transcript expression [2] | collagen 1 transcript expression [2] | basal expression of CTGF [2] | basal expression of collagen 1 [2] | P815 tumor growth ([5]; oral 200 mg/kg, FIG. 7 and 8) | reduction of primary tumor volume compared to the control [8] | efficacy on primary tumor LL/2 (single agent) [10] | other results
1 | CCCCCc1cccc(CC(=O)[O-])c1.[Na+] [Compound I, Sodium Salt of (3-pentylphenyl)Acetic Acid] | 54 | significant inhibition | reduction | reduction | reduction | reduction | significant reduction (p<0.05) | – | – | inhibition at 200 µM ([3]; 200 μM): 54%; inhibition of TGF-induced CTGF production [4]: significant (p<0.05) inhibition
2 | O=P1(N(CCCl)CCCl)NCCCO1 (stereo not drawn) [Cyclophosphamide, cyclophosphamide] | – | – | – | – | – | – | – | – | – | tumor growth T/C [6]: 42-78%
3 | CCCCCCCCCC(=O)[O-].[Na+] [Sodium decanoate] | 50 | significant inhibition | reduction | reduction | reduction | reduction | significant reduction (p<0.05) | around 25% | weak efficacy | tumor growth Treated/Control (T/C) [7]: 60-70%; efficacy on primary tumor CT-26 (single agent) [9]: weak efficacy; inhibition at 500 µM ([3]; 500 μM): 51%; reduction of mice with liver metastasis [11]: 50%; P815 tumor growth ([5]; DBA/2 mice, oral 40-200 mg/kg every day, FIG. 6): significant reduction (p<0.05)
4 | COc1cccc2c1C(=O)c1c(O)c3c(c(O)c1C2=O)C[C@@](O)(C(=O)CO)C[C@@H]3O[C@H]1C[C@H](N)[C@H](O)[C@H](C)O1 [doxorubicin, reference compound] | – | – | – | – | – | – | – | around 25% | – | –
5 | Nc1ccn([C@@H]2O[C@H](CO)[C@@H](O)C2(F)F)c(=O)n1 [gemcitabine, reference compound] | – | – | – | – | – | – | – | – | weak efficacy | median survival [12]: 68.5 days
